Assay results: US20150087606A1, “PHARMACEUTICAL COMPOSITION FOR PREVENTING OR TREATING AMYLOID BETA PEPTIDE-ASSOCIATED DISEASES OR CONDITIONS” (Sinphar Tian-Li Pharmaceutical Co., Ltd. (Hangzhou), priority 2011, published 2015)
“Also recorded” adds a separate entry of the source.

Assays:
[1] = system: extracellular Aβ1-40 accumulation, SH-SY5Y cells; test: Effect of each test sample on extracellular Aβ1-40 accumulation (Human Aβ1-40 immunoassay of the medium); format: cell-based
Description: Wild-type human neuroblastoma cells (SH-SY5Y) were cultured in Eagle's Minimum essential Medium (EMEM)/Ham's F12 medium (1:1 mixture) (containing 10% FBS, 10 units/ml penicillin, 10 μg/ml Streptomycin). Wild-type mouse neuroblastoma Neuro-2a cells were cultured in minimum essential medium (MEM) (containing 10% FBS, 10 units/ml penicillin, 10 μg/ml Streptomycin).
The medium of the wild-type human neuroblastoma SH-SY5Y cells in Example 1 were switched into chemical defined medium (EMEM/F12 medium (Cat. No. 12500-062), Hepes 5 mM, Glucose 0.6%, NaHCO3 3 mM, Glutamine 2.5 mM, Insulin 25 μg/ml, Transferin 100 μg/ml, Progestrone 20 nM, Putrescine 60 μM, Sodium selenite 30 nM, Heparin 2 μg/ml). Each well contained 1×10^5 SH-SY5Y cells in 300 μl of culture medium. Thirty minutes later, each well was treated with the test samples given in Table 1 respectively at a total concentration of 50 μg/ml for 24 hours. After that, the level of Aβ1-40 in the medium of each well was analyzed by Human Aβ1-40 immunoassay kits (Catalog #KHB3482 Invitrogen).
Human neuroblastoma SH-SY5Y cells cause extracellular accumulation of Aβ. […] The results were shown in mean ± standard deviation (SD) form. Significant difference between the Vehicle control group and the test sample-treated groups were indicated by * * * , P<0.001.

Human Aβ1-42 = Human Aβ1-42 (Homo sapiens, UniProt P05067); test: Effect of each test sample on Aβ1-42 oligomerization (thioflavin T fluorescence); format: biochemical; settings: 50 μg/ml, 4° C., 24 hours, thioflavin T fluorescence (FIG. 2)
Sequence of Human Aβ1-42 (P05067 672-713 limits assumed): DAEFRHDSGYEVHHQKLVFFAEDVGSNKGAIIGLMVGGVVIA
Description: Dried Human Aβ1-42 was taken out from the refrigerator and equilibrated to room temperature. Aβ1-42 was dissolved in 1,1,1,3,3,3-Hexa-fluro-2-propanol (HFIP) to a concentration of 1 mM, and was then placed at room temperature for one hour. The Aβ1-42/HFIP solution was aliquoted by Hamilton syringe, and was then dried under a stream of nitrogen gas, followed by storing at a temperature of −20° C. Aβ1-42 treated with HFIP was dissolved in PBS, and was vibration-incubated with treatment of each test sample at a concentration of 50 μg/ml and at 4° C. for 24 hours to prepare Aβ1-42 oligomers. The level of Aβ1-42 oligomerization was analyzed by thioflavin T fluorescence (Ex=450 nm, Em=482 nm). […] That is to say, these pharmaceutical compositions can be used to prevent or treat Aβ-associated diseases or conditions.

Compound	reduces the level of Aβ1-40 in the medium ([1]; total concentration of 50 μg/ml, 24 hours, based on Vehicle control group (FIG. 1))	activity on inhibiting Aβ1-42 oligomerization (in words) (Human Aβ1-42)	activity on reducing extracellular Aβ1-40 accumulation (in words) ([1]; total 50 μg/ml, 24 hours (FIG. 1))
C[C@@H]1O[C@@H](O[C@@H]2[C@@H](O)[C@H](OCCc3ccc(O)c(O)c3)O[C@H](CO)[C@H]2OC(=O)/C=C/c2ccc(O)c(O)c2)[C@H](O)[C@H](O)[C@H]1O [A, Acteoside]	about 10%	–	–
C[C@@H]1O[C@@H](O[C@@H]2[C@@H](O)[C@H](OCCc3ccc(O)c(O)c3)O[C@H](COC(=O)/C=C/c3ccc(O)c(O)c3)[C@H]2O)[C@H](O)[C@H](O)[C@H]1O [I, Isoacteoside]	–	better activity	significant activity; also recorded: better activity
